# Assay results as given in US9938240B2, “Fluorinated derivatives of 3-hydroxypyridin-4-ones” (Apotex Technologies Inc., priority 2009, dated 2018).
# Read-outs that look alike come from different tables or passages of the source.
# Columns and labels:
# [1] = Oral cassette dosing PK/BBB studies; format: in vivo, male Sprague-Dawley rats; conditions: oral cassette dosing
# Experimental: In-vivo pharmacokinetic (PK) and blood brain barrier (BBB) studies were conducted in male Sprague-Dawley rats using cassette dosing via oral administration. […] No. 15, pp. 652-658.
# [2] = Distribution coefficient determination, D7.4 (1-octanol / K2HPO4 buffer); format: physicochemical; conditions: 1-octanol / K2HPO4 buffer 50 mM pH 7.4
# Experimental: K2HPO4 buffer (50 mM, pH=7.4) and 1-octanol were used as the aqueous phase and the organic phase, respectively. The K2HPO4 buffer and 1-octanol were mixed, and pre-saturated with each other before use.
# In a typical experiment, an aqueous solution of Apo6995 (3-hydroxy-2-methyl-1-(2,2,2-trifluoroethyl)pyridin-4(1H)-one) was prepared by weighing out 3 mg of the compound into a 10-mL test-tube. It was then mixed with K2HPO4 buffer (2 mL) and sonicated for 30 minutes with frequent vortexing. The solution was then filtered through HPLC syringe filter (4 mm PVDF syringe filter 0.45 μM) to obtain the aqueous solution.
# One mL of this aqueous solution was pipetted out into another 10-mL test-tube and mixed with 1 mL of 1-octanol. The mixture was then vortexed for 1 hour. The solution was centrifuged at 2000 rpm for 10 minutes. A small amount of the lower aqueous layer was carefully pipetted out and analyzed by HPLC to obtain the peak height (HF). The distribution coefficient, D7.4, was calculated using the following equation: D7.4=(HI−HF)/HF.
# [3] = test system: SH-SY5Y human neuroblastoma cells; conditions: for CC2 (cytotoxic concentration): H2O2-treated cells, viability below 80%; for CC1 (cytotoxic concentration): absence of H2O2, viability below 80%
# Source text: Hydrogen peroxide (H2O2) is a major ROS (reactive oxidative species), which causes oxidative stress, and can induce apoptosis in many different cell types. One of the CNS drug design strategies is to use compounds with antioxidant properties as a possible treatment of both acute and chronic neurodegenerative diseases (Kang et al. Bioorganic & Medicinal Chemistry Letters, 2004, 14, 2261-2264). This involves testing the compounds of this invention for their protective effect against oxidative stress-induced cell death in SH-SY5Y human neuroblastoma cells. SH-SY5Y human neuroblastoma cells were cultured in DMEM (ATCC)/F12 (Cellgro) with 10% FBS. The cells were plated at 30,000 cells/cm^2 and grown for 1 day in the regular culture media prior to compound addition. Cells were routinely treated with the test compound, at a pre-determined range of concentrations, in the presence or absence of 50 μM hydrogen peroxide in a basal medium containing no FBS for 16-22 h. Cell viability was then measured using the routine MTT method (Mosmann, T., Rapid Colorimetric Assay for Cellular Growth and Survival: Application to Proliferation and Cytotoxicity Assays”. J. Immunol. Meth. 1983, 65, 55-63).
# For data analysis, cell viability relative to control not treated with either H2O2 or the test compound, was plotted against the compound concentration. […] Cytotoxicity of the test compound was assessed in the absence of hydrogen peroxide.
# [4] = test system: human neuroblastoma MC-65 cells; test: cells; conditions: for EC100 / minimal effective concentration: Homo sapiens, MC65, 48 h; for EC100: read-out: EC100 (maximum effective concentration); for minimal effective concentration: read-out: TH (threshold protective concentration); for CC2 (cytotoxic concentration): MC-65, cultured without tetracycline; for CC2 (cytotoxic concentration) / CC1 (cytotoxic concentration): viability below 80%; for CC1 (cytotoxic concentration): MC-65, presence of TET
# Experimental: In this assay, human neuroblastoma cells (MC-65 cells) are genetically engineered to conditionally express amyloid β peptide (Aβ). The Aβ production is suppressed by tetracycline (TET+) presence in culture medium, and its production is activated when TET is withdrawn (TET−). The activation of Aβ production results in cell death “MC-65 suicide”.
# Protective effect of compounds against edogenously produced amyloid beta (Aβ) was assessed in human neuroblastoma MC-65 cells. MC-65 cells have been stably transformed to conditionally express high levels of a partial amyloid precursor (AP) fusion protein (Bryce Sopher et al., Brain Res Mol Brain Res. 1994, 207-17.). This protein is further proteolitically processed in the cells to form a set of AP-derived Aβ peptides. […] Activity of the promoter is tightly regulated by the presence of the antibiotic tetracycline (TET) in the culture medium. In the presence of TET (TET+), the promoter is in the basal state and no amyloid beta peptide is synthesized. In the absence of TET (TET−) the promoter is in induced state, resulting in the accumulation of Aβ peptides in the cells, degenerative changes in cell morphology and decreased survival.
# Transfected human neuroblastoma cells (MC-65) were cultured in DMEM (ATCC) supplemented with non-essential amino acids and 10% FBS (VWR) in the presence of TET (1 μg/mL). For the experiment, the cells were plated at 35,000 cells/cm^2 and grown for 1 day in the regular culture media prior to compound addition. On the day of the assay, culture supernatant was removed from the wells and cells were thoroughly washed once with the compound incubation matrix containing no FBS and no TET. MC-65 cells were treated with a test compound at pre-determined range of concentrations in a basal medium containing no FBS and in the absence or presence of 1 μg/mL TET for approximately 48 h. Cell viability was then measured using the MTT method.
# For data analysis, cell viabilities relative to the control not treated with a test compound and maintained in the presence of TET were plotted against the compound concentration. […] Cytotoxicity of the test compound was assessed in the cells maintained in the presence of TET.
# [5] = Benzoic acid hydroxylation assay; conditions: benzoic acid 1 mM, H2O2 6 mM, FeCl3 30 μM, chelator 30 μM, pH 7.4, up to 81 h
# Source text: Benzoic acid is a hydroxyl radical scavenger and reacts with hydroxyl radical to give 2-hydroxy, 3-hydroxy and 4-hydroxybenzoic acids. The benzoic acid hydroxylation assay is a chemical assay designed to detect damage caused by hydroxyl radical (Dean and Nicholson, Free Radical Research 1994, vol 20, 83-101). For example, deferiprone suppresses the formation of hydroxybenzoic acids in the presence of iron salts and hydrogen peroxide, while EDTA and iron salts allow such hydroxylation reactions to take place.
# This screening assay involves the use of iron salt, benzoic acid, hydrogen peroxide and the chelator and measures the ability of the chelator to inhibit the formation of hydroxybenzoate as an indicator to prevent hydroxyl radical formation in living system.
# Briefly, this procedure is based on the ability of hydroxyl radicals to hydroxylate benzoate to give 2-, 3- and 4-hydroxylated benzoic acid products. Benzoic acid (1 mM) is incubated over time up to 81 h at room temperature in the dark in 10 mM phosphate buffer (pH 7.4) with 6 mM hydrogen peroxide, ferric chloride (30 μM) and the Fe chelator (30 μM). HPLC is the method of choice used to monitor and quantify the amount of 2-, 3- and 4-hydroxylated products formed over time in the reaction mixture, and can be verified against authentic benzoic acid and its hydroxylated products via their respective retention times and areas under curve. In addition, several controls are used: (i) a control without added Fe stock solution and Fe chelator; (ii) a control without added Fe chelator; (iii) EDTA as positive control; and (iv) deferiprone as negative control. The Fe-EDTA system is a hydroxyl radical generator and is known to promote hydroxylation of benzoic acid.
# [6] = Pharmacokinetics following oral administration to rats; format: in vivo, male Sprague Dawley rats; conditions: rat, oral 50 mg/kg in 0.5% CMC; for Brain AUC_D_obs / Brain Cmax_D / Plasma AUC_D_obs / Plasma Cmax_D: dose-normalized
# Experimental: Adult male Sprague Dawley rats (275-325 g, Charles River Laboratories, Saint Constant, Quebec) were orally dosed with 50 mg/kg of test compound (Apo7323, Apo7433, Apo7435 or Apo7448) suspended in 0.5% carboxymethylcellulose (CMC) in water. For each test compound, samples were obtained from the plasma and brain of three animals per time point, at 0 (dosed with 0.5% CMC), 0.25, 0.5, 1, 2, 4, 8 and 12 h following administration. The concentration of the compound in rat plasma and brain samples was determined by HPLC-UV. Pharmacokinetic parameters were computed using the PKPlus Module in GastroPlus® ver. 8.0 (Simulations Plus Inc., Lancaster, Calif.). Calculation method: linear trapezoidal with linear interpolation.
# [7] = Cyclic voltammetry of iron complexes; format: physicochemical; conditions: for E1/2 vs. Ag/AgCl / E1/2 vs. NHE / ΔE / Eox / Ered: 0.1M aqueous NaCl; for E1/2 vs. Ag/AgCl / E1/2 vs. NHE / ΔE: pH 7.4; for Eox / Ered: pH 7.4, vs. Ag/AgCl; for redox potential E1/2 (vs. NHE): pH 7.4, as quoted
# [8] = cited from earlier work
compound,measurement,setting,value
"CCc1c(O)c(=O)ccn1CC(F)(F)F [Apo7030, 2-ethyl-3-hydroxy-1-(2,2,2-trifluoroethyl)pyridin-4(1H)-one]",AUC brain* (cal.),"[1]; rats, normalized to 1 mg/kg, value marked (cal.)",0.59 cal·µg·h/mL
same,Kp,"[1]; rat, brain and plasma, male Sprague-Dawley rats, read-out: AUC brain/AUC plasma",1
same,AUC,"[1]; rat, plasma, male Sprague-Dawley rats, AUC normalized to 1 mg/kg dose",590 ng·h/mL
same,D7.4,[2],5.93
same,logD,[2]; read-out: Log D7.4,0.77
same,CC2 (cytotoxic concentration),[3],>640 µM
same,CC1 (cytotoxic concentration),[3],640 µM
same,EC100,[4],20 µM
same,minimal effective concentration,[4],1 µM
same,CC2 (cytotoxic concentration),[4],40 µM
same,CC1 (cytotoxic concentration),[4],40 µM
"CN(C)c1c(O)c(=O)cc(CC(F)(F)F)n1C [Apo7077, 2-(dimethylamino)-3-hydroxy-1-methyl-6-(2,2,2-trifluoroethyl)pyridin-4(1H)-one]",hydroxylation of benzoic acid by Fe chelate,[5],do not promote the hydroxylation of benzoic acid
same,EC100,[4],10 µM
same,minimal effective concentration,[4],1 µM
same,CC2 (cytotoxic concentration),[4],80 µM
same,CC1 (cytotoxic concentration),[4],80 µM
"Cc1[nH]cc(C(N2CCOCC2)C(F)(F)F)c(=O)c1O (centres unmarked) [Apo7433, 3-hydroxy-2-methyl-5-(2,2,2-trifluoro-1-morpholinoethyl)pyridin-4(1H)-one]",CC2 (cytotoxic concentration),[3],320 µM
same,CC1 (cytotoxic concentration),[3],320 µM
same,EC100,[4],10 µM
same,minimal effective concentration,[4],1 µM
same,CC2 (cytotoxic concentration),[4],40 µM
same,CC1 (cytotoxic concentration),[4],40 µM
same,CL,[6],62.7 mL/min/kg
same,Brain AUC_D_obs,[6],0.039 kg·µg·h/mL/mg
same,Brain Cmax_D,[6],0.400 kg·µg/mL/mg
same,Plasma AUC_D_obs,[6],0.860 kg·µg·h/mL/mg
same,Plasma Cmax_D,[6],0.396 kg·µg/mL/mg
"Cn1ccc(=O)c(O)c1C(N1CCOCC1)C(F)(F)F (centres unmarked) [Apo7448, 3-hydroxy-1-methyl-2-(2,2,2-trifluoro-1-morpholinoethyl)pyridin-4(1H)-one]",CC2 (cytotoxic concentration),[3],320 µM
same,CC1 (cytotoxic concentration),[3],80 µM
same,EC100,[4],20 µM
same,minimal effective concentration,[4],1 µM
same,CC2 (cytotoxic concentration),[4],40 µM
same,CC1 (cytotoxic concentration),[4],40 µM
same,CL,[6],52 mL/min/kg
same,Brain AUC_D_obs,[6],0.486 kg·µg·h/mL/mg
same,Brain Cmax_D,[6],0.178 kg·µg/mL/mg
same,Plasma AUC_D_obs,[6],1.07 kg·µg·h/mL/mg
same,Plasma Cmax_D,[6],0.334 kg·µg/mL/mg
Cc1c([O-])c(=O)ccn1C.Cc1c([O-])c(=O)ccn1C.Cc1c([O-])c(=O)ccn1C.[Fe+3] [Fe(L1)3],E1/2 vs. Ag/AgCl,[7],−797 mV
same,E1/2 vs. NHE,[7],−577 mV
same,ΔE,[7],89 mV
same,Eox,[7],−752 mV
same,Ered,[7],−841 mV
same,redox potential E1/2 (vs. NHE),[7],−628 my
CC(=O)N([O-])CCCCCNC(=O)CCC(=O)N([O-])CCCCCNC(=O)CCC(=O)N([O-])CCCCCN.[Fe+3] [FeDFO],E1/2 vs. Ag/AgCl,[7],−698 mV
same,E1/2 vs. NHE,[7],−478 mV
same,ΔE,[7],112 mV
same,Eox,[7],−642 mV
same,Ered,[7],−754 mV
same,redox potential E1/2 (vs. NHE),[7],−480 my
same,E1/2 literature value,"[8]; versus Ag/AgCl, Crumbliss et al. 2003",−688 mV
Fe-transferrin: iron bound to the blood protein transferrin,E1/2 vs. Ag/AgCl,[8]; background value,−720 my
same,E1/2 vs. NHE,[8]; background value,−500 my
